Assay results as given in PubChem BioAssay (NCI).
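A five-concentration, 48-hour dose response in 96-well plates underlies each endpoint, interpolated linearly between surrounding concentrations. Abbreviation: GI50, concentration required for 50% inhibition of growth. TGI: total growth inhibition.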

Legend:
Test in all cases: growth of human tumour cells (NCI), 48 h
A498 renal = system: A498 renal
A549 NSCLC = system: A549 NSCLC
HT29 colon = system: HT29 colon
M14 melanoma = system: M14 melanoma
NCI-H23 lung = system: NCI-H23 lung
OVCAR-5 ovarian = system: OVCAR-5 ovarian
SK-MEL-5 melanoma = system: SK-MEL-5 melanoma
SNB-19 CNS = system: SNB-19 CNS
UO-31 renal = system: UO-31 renal
OVCAR-8 ovarian = system: OVCAR-8 ovarian

## [N-]=[N+]=Nc1nc2ccccc2c(N=[N+]=[N-])c1Cl
A498 renal
  TGI: 46.9 µM
A549 NSCLC
  TGI: > 100 µM
HT29 colon
  TGI: > 100 µM
M14 melanoma
  TGI: > 100 µM
NCI-H23 lung
  TGI: > 100 µM
OVCAR-5 ovarian
  TGI: > 100 µM
SK-MEL-5 melanoma
  TGI: > 100 µM
SNB-19 CNS
  TGI: > 100 µM
UO-31 renal
  TGI: > 100 µM

## CC(=O)OCC1OC(SC2=NC(=O)CS2)C(OC(C)=O)C(OC(C)=O)C1OC(C)=O (stereo not given)
A498 renal
  TGI: > 100 µM
A549 NSCLC
  TGI: > 100 µM
HT29 colon
  TGI: > 100 µM
M14 melanoma
  TGI: > 100 µM
NCI-H23 lung
  TGI: > 100 µM
OVCAR-5 ovarian
  TGI: > 100 µM
OVCAR-8 ovarian
  TGI: > 100 µM
SK-MEL-5 melanoma
  TGI: > 100 µM
SNB-19 CNS
  TGI: > 100 µM
UO-31 renal
  TGI: > 100 µM

## COC(=O)c1c2c(cc3c1CC1(Cc4cc5c(c(C)c4C1)CCC5)C3)CCC2 (stereo not given)
A498 renal
  TGI: > 100 µM
A549 NSCLC
  TGI: > 100 µM
HT29 colon
  TGI: > 100 µM
M14 melanoma
  TGI: > 100 µM
NCI-H23 lung
  TGI: > 100 µM
OVCAR-5 ovarian
  TGI: > 100 µM
OVCAR-8 ovarian
  TGI: > 100 µM
SK-MEL-5 melanoma
  TGI: > 100 µM
SNB-19 CNS
  TGI: > 100 µM
UO-31 renal
  TGI: > 100 µM

## O=c1[nH]n(CCc2ccccc2CCl)c2ccc([N+](=O)[O-])cc12
A498 renal
  TGI: > 100 µM
A549 NSCLC
  TGI: > 100 µM
HT29 colon
  TGI: > 100 µM
M14 melanoma
  TGI: > 100 µM
NCI-H23 lung
  TGI: > 100 µM
OVCAR-5 ovarian
  TGI: > 100 µM
OVCAR-8 ovarian
  TGI: > 100 µM
SK-MEL-5 melanoma
  TGI: > 100 µM
SNB-19 CNS
  TGI: > 100 µM
UO-31 renal
  TGI: > 100 µM

## C=C(Br)C[N+]12CN3CN(CN(C3)C1)C2
A498 renal
  TGI: > 100 µM
A549 NSCLC
  TGI: > 100 µM
HT29 colon
  TGI: > 100 µM
M14 melanoma
  TGI: > 100 µM
NCI-H23 lung
  TGI: > 100 µM
OVCAR-5 ovarian
  TGI: > 100 µM
OVCAR-8 ovarian
  TGI: > 100 µM
SK-MEL-5 melanoma
  TGI: > 100 µM
SNB-19 CNS
  TGI: > 100 µM
UO-31 renal
  TGI: > 100 µM

## COc1cccc(NC(=O)CC(=O)n2nc(-c3ccccc3)c(N=Nc3ccc(Cl)cc3)c2-c2ccccc2)c1
A498 renal
  TGI: > 83.1 µM
A549 NSCLC
  TGI: > 85.7 µM
HT29 colon
  TGI: 56.7 µM
M14 melanoma
  TGI: 42.3 µM
NCI-H23 lung
  TGI: > 78.1 µM
OVCAR-5 ovarian
  TGI: > 100 µM
OVCAR-8 ovarian
  TGI: 68.3 µM
SK-MEL-5 melanoma
  TGI: 53.8 µM
SNB-19 CNS
  TGI: > 100 µM
UO-31 renal
  TGI: 30.8 µM

## CC(C)[C@H](C)/C=C/[C@@H](C)C1CC[C@H]2[C@@]34C=C[C@]5(C[C@@H](O)CC[C@]5(C)[C@H]3CC[C@]12C)OO4 (stereo not given in full)
A498 renal
  TGI: 57.3 µM
A549 NSCLC
  TGI: > 100 µM
HT29 colon
  TGI: 53.7 µM
M14 melanoma
  TGI: > 100 µM
NCI-H23 lung
  TGI: 92.5 µM
OVCAR-5 ovarian
  TGI: > 100 µM
OVCAR-8 ovarian
  TGI: 66.4 µM
SK-MEL-5 melanoma
  TGI: 62.2 µM
SNB-19 CNS
  TGI: 81.7 µM
UO-31 renal
  TGI: > 100 µM

## C=CC(C)(C)/C=C/c1ccc(O)cc1
A498 renal
  TGI: > 100 µM
A549 NSCLC
  TGI: > 100 µM
HT29 colon
  TGI: > 100 µM
M14 melanoma
  TGI: > 100 µM
NCI-H23 lung
  TGI: > 100 µM
OVCAR-5 ovarian
  TGI: > 100 µM
OVCAR-8 ovarian
  TGI: > 100 µM
SK-MEL-5 melanoma
  TGI: > 100 µM
SNB-19 CNS
  TGI: > 100 µM

## CC(CCc1nc2ccccc2s1)(c1ccc(O)cc1)c1ccc(O)cc1
A498 renal
  TGI: 36.5 µM
A549 NSCLC
  TGI: 38.2 µM
HT29 colon
  TGI: 38.4 µM
M14 melanoma
  TGI: 33.4 µM
NCI-H23 lung
  TGI: 32 µM
OVCAR-5 ovarian
  TGI: 33.1 µM
OVCAR-8 ovarian
  TGI: 39.6 µM
SK-MEL-5 melanoma
  TGI: 33.1 µM
SNB-19 CNS
  TGI: 34.8 µM
UO-31 renal
  TGI: 31.3 µM

## Oc1c(Cl)cc2cc1-c1cc(cc(Cl)c1O)CCc1c(cc(Cl)c(O)c1Cl)-c1cc(Cl)c(c(Cl)c1O)/C=C\2
A498 renal
  TGI: 30.8 µM
A549 NSCLC
  TGI: 23.9 µM
HT29 colon
  TGI: 25.2 µM
M14 melanoma
  TGI: 15.6 µM
NCI-H23 lung
  TGI: 33.6 µM
OVCAR-5 ovarian
  TGI: 19.5 µM
OVCAR-8 ovarian
  TGI: 16.1 µM
SK-MEL-5 melanoma
  TGI: 14.9 µM
SNB-19 CNS
  TGI: 26 µM

## Cc1cc2c(c(C(=O)NCC(=O)O)c1)Oc1c(cc(C)cc1C(=O)NCC(=O)O)S2
A549 NSCLC
  TGI: > 100 µM
HT29 colon
  TGI: > 100 µM
M14 melanoma
  TGI: > 100 µM
NCI-H23 lung
  TGI: > 100 µM
OVCAR-5 ovarian
  TGI: > 100 µM
OVCAR-8 ovarian
  TGI: > 100 µM
SNB-19 CNS
  TGI: > 100 µM

## Cc1ccc(S(=O)(=O)OCCC2CN(C(=O)OCc3ccccc3)C(C)(C)O2)cc1 (stereo not given)
A498 renal
  TGI: > 100 µM
A549 NSCLC
  TGI: > 100 µM
M14 melanoma
  TGI: 38.1 µM
NCI-H23 lung
  TGI: 13.5 µM
OVCAR-5 ovarian
  TGI: > 100 µM
OVCAR-8 ovarian
  TGI: 29.4 µM
SK-MEL-5 melanoma
  TGI: 8.76 µM
SNB-19 CNS
  TGI: 27.3 µM
UO-31 renal
  TGI: 15.4 µM

## O=C1C(N2CCN(CCOCCO)CC2)=C(Cl)C(=O)c2ncccc21
A498 renal
  GI50: > 100 µM
  TGI: > 100 µM
A549 NSCLC
  GI50: > 100 µM
  TGI: > 100 µM
HT29 colon
  TGI: 46 µM
M14 melanoma
  TGI: 39.2 µM
NCI-H23 lung
  TGI: 42.5 µM
OVCAR-5 ovarian
  TGI: 57.1 µM
OVCAR-8 ovarian
  TGI: 39.4 µM
SK-MEL-5 melanoma
  TGI: 30.6 µM
UO-31 renal
  TGI: 33.6 µM

## O=C1c2ccccc2C2(c3ccc(F)cc3)NCCN12 (stereo not given)
A549 NSCLC
  TGI: > 100 µM
HT29 colon
  TGI: > 100 µM
M14 melanoma
  TGI: > 100 µM
NCI-H23 lung
  TGI: > 100 µM
OVCAR-5 ovarian
  TGI: > 100 µM
OVCAR-8 ovarian
  TGI: > 100 µM
SK-MEL-5 melanoma
  TGI: > 100 µM
SNB-19 CNS
  TGI: > 100 µM
UO-31 renal
  TGI: > 100 µM

## Cc1cc2nc3ccccc3n2c2ccccc12
A549 NSCLC
  TGI: > 10 µM
HT29 colon
  TGI: > 10 µM
M14 melanoma
  TGI: > 10 µM
NCI-H23 lung
  TGI: > 10 µM
OVCAR-5 ovarian
  TGI: > 10 µM
OVCAR-8 ovarian
  TGI: > 10 µM
SK-MEL-5 melanoma
  TGI: > 10 µM
SNB-19 CNS
  TGI: > 10 µM

## Cc1cc(S(=O)(=O)Nc2nc3cscc3c(=O)n2N)c(S)cc1Cl
A549 NSCLC
  TGI: > 100 µM
HT29 colon
  TGI: > 100 µM
M14 melanoma
  TGI: > 100 µM
NCI-H23 lung
  TGI: > 100 µM
OVCAR-5 ovarian
  TGI: 64 µM
OVCAR-8 ovarian
  TGI: > 100 µM
SK-MEL-5 melanoma
  TGI: > 100 µM
SNB-19 CNS
  TGI: > 100 µM

## C/C(=C\Cc1ccc(F)cc1)CCCCCC/C(C)=C/Cc1ccc(F)cc1
A549 NSCLC
  TGI: 31.7 µM
HT29 colon
  TGI: 33.3 µM
M14 melanoma
  TGI: 45.6 µM
NCI-H23 lung
  TGI: 24 µM
OVCAR-5 ovarian
  TGI: 37.9 µM
OVCAR-8 ovarian
  TGI: 39.6 µM
SK-MEL-5 melanoma
  TGI: 27.8 µM
SNB-19 CNS
  TGI: 75.9 µM
UO-31 renal
  TGI: 23.1 µM

## Cc1nc(C)c(N2CCN(CN)CC2)c(=O)[nH]1
A498 renal
  TGI: > 100 µM
A549 NSCLC
  TGI: > 100 µM
HT29 colon
  TGI: > 100 µM
M14 melanoma
  TGI: > 100 µM
NCI-H23 lung
  TGI: > 100 µM
OVCAR-8 ovarian
  TGI: > 100 µM
SK-MEL-5 melanoma
  TGI: > 100 µM
SNB-19 CNS
  TGI: > 100 µM
UO-31 renal
  TGI: > 100 µM

## CCC1=C(C[C@H]2NCCc3cc(OC)c(OC)cc32)C[C@H]2c3cc(OC)c(OC)cc3CCN2C1
A498 renal
  TGI: 0.0497 µM
HT29 colon
  TGI: 0.182 µM
M14 melanoma
  TGI: 0.069 µM
NCI-H23 lung
  TGI: 0.0532 µM
OVCAR-5 ovarian
  TGI: 0.49 µM
OVCAR-8 ovarian
  TGI: 0.137 µM
SK-MEL-5 melanoma
  TGI: 0.0551 µM
UO-31 renal
  TGI: 0.923 µM

## O=C1CCCCC/C1=C\c1cccc(F)c1
A498 renal
  TGI: > 100 µM
A549 NSCLC
  TGI: > 100 µM
HT29 colon
  TGI: > 100 µM
M14 melanoma
  TGI: > 100 µM
OVCAR-5 ovarian
  TGI: > 100 µM
OVCAR-8 ovarian
  TGI: > 100 µM
SK-MEL-5 melanoma
  TGI: > 100 µM
SNB-19 CNS
  TGI: > 100 µM
UO-31 renal
  TGI: > 100 µM

## COC(=O)C1C(=O)CC(C)(O)C(C(=O)OC)C1c1ccc(N(C)C)cc1 (stereo not given)
A498 renal
  TGI: > 100 µM
A549 NSCLC
  TGI: > 100 µM
HT29 colon
  TGI: > 100 µM
NCI-H23 lung
  TGI: > 100 µM
OVCAR-5 ovarian
  TGI: > 100 µM
OVCAR-8 ovarian
  TGI: > 100 µM
SK-MEL-5 melanoma
  TGI: > 100 µM
SNB-19 CNS
  TGI: > 100 µM
UO-31 renal
  TGI: > 100 µM

## O=c1c2ccccc2nc(N/N=C/c2ccc([N+](=O)[O-])cc2)n1-c1ccccc1
A549 NSCLC
  TGI: > 100 µM
HT29 colon
  TGI: > 100 µM
M14 melanoma
  TGI: > 100 µM
NCI-H23 lung
  TGI: > 100 µM
OVCAR-5 ovarian
  TGI: > 100 µM
OVCAR-8 ovarian
  TGI: > 100 µM
SK-MEL-5 melanoma
  TGI: > 100 µM
SNB-19 CNS
  TGI: > 100 µM
UO-31 renal
  TGI: > 100 µM

## O=C1c2ccncc2C(=O)c2c(O)ccc(O)c21
A498 renal
  TGI: 33.1 µM
A549 NSCLC
  TGI: 18.1 µM
HT29 colon
  TGI: 7.74 µM
M14 melanoma
  TGI: 19.5 µM
OVCAR-5 ovarian
  TGI: 29.9 µM
OVCAR-8 ovarian
  TGI: 21.4 µM
SNB-19 CNS
  TGI: 24.8 µM
UO-31 renal
  TGI: 29.7 µM
